Experimental findings from paper PMC6161288, “Bioavailability of Eurycomanone in Its Pure Form and in a Standardised Eurycoma longifolia Water Extract” (Pharmaceutics, 2018) are described below.

Like-named read-outs stand apart in the source and are kept apart here. Bounds are passed on as bounds.

Data set [1] in a line: Pharmacokinetics of eurycomanone in mice (intravenous and oral). The data set is classed as in vivo, CD-1 mice. The following applies: plasma; for AUC(0-t): read-out: AUC0–8. The source says:
The ethical approval for the animal experiments conducted in India was granted from the Animal Ethics Committee, Aurigene Discovery Technologies, Bangalore, India. Eight male Wistar rats (12 weeks old; weighing 250–350 g) and eight Caeserean Derived-1 (CD-1) mice (weighing 20–30 g) were obtained from the Animal House, Aurigene Discovery Technologies, Bangalore, India. They were supplied with standard rodent diets and drinking water ad libitum. Each rodent species (i.e., rats and mice) were divided into two groups. One group (n = 3 for each rodent species) was administered with eurycomanone via the intravenous route (IV) and another group (n = 3 for each rodent species) via the oral route (PO) using oral gavage intubation needle. Two animals of each of the species were used as a control and they received reverse osmosis water. All rats underwent jugular vein cannulation surgery 72 h prior to the administration of the eurycomanone.
Eurycomanone (rats: 1.5 mg/mL for IV route and 3.0 mg/mL for PO route; mice: 0.5 mg/mL for IV route and 1.0 mg/mL for PO route) samples were prepared fresh on the day of dosing. For the IV administration, eurycomanone was dissolved in 3% NMP and 97% of 10% HPCD in saline. For the oral administration, eurycomanone was dissolved in 3% NMP and 97% of 30% HPCD in saline. Both samples were sonicated before use. The SWE (5 mg/mL for IV route, 10 mg/mL for PO route) was prepared fresh on the day of dosing. For the IV administration, the SWE was dissolved in reverse osmosis water and filtered (0.2 µm pore size) before administration. The SWE for the PO administration was prepared using the same method, except without filtering. The animals were not fasted and doses given were based on the body weights prior to dosing.
Blood specimens (approximately 0.30–0.40 mL via the jugular vein cannula for rats and 0.10–0.20 mL via submanibular bleeding for mice) were collected at time points 0.083 (IV group only), 0.25, 0.5, 1, 2, 4, 6, and 8 h post-dosing with eurycomanone. At the experiment end point, the animals were euthanized by excess isoflurane inhalation followed by cervical dislocation. In the experiment using SWE, the rats were placed in metabolic cages (Techniplast, West Chester, PA, USA) and blood (approximately 0.30–0.40 mL collected via the jugular vein cannula), urine, and faeces specimens were collected at the same time points with the above plus one additional time point of 24 h. Kidney and liver specimens were collected at necropsy, where the rats were euthanized by CO2 inhalation followed by cervical dislocation. All blood specimens were centrifuged (10,000 rpm, 10 min) to obtain plasma and were stored at −80 °C until processed. Urine and faeces specimens were collected into plastic containers on wet ice while the organ specimens were snap-frozen in liquid nitrogen and maintained at −80 °C until processed.
Plasma specimens (100 µL), collected from the eurycomanone experiment were added with the internal standard solution (10 µL). Plasma proteins were precipitated with ACN (300 µL), vortex-mixed for 5 min, and centrifuged at 4000 rpm for 7 min. The supernatant was collected and evaporated using a nitrogen evaporator for 20 min at 50 °C. Thereafter, they were reconstituted with the mobile phase (500 µL) and transferred into LC-MS vials for analysis.
Eurycomanone detection in the pure eurycomanone experiments was done via the LC-MS/MS system consisting of an Agilent 1260 Infinity HPLC system and an AB SCIEX API 4000™ Triple-Quadrupole mass spectrometer equipped with TurboIonSpray® probe and atmospheric pressure chemical ionization (APCI) (AB Sciex LLC, Framingham, MA, USA). Electrospray ionization (ESI) was performed in positive ion mode. The analytical column was Agilent Zorbax Eclipse-C18 (4.6 mm I.D. × 150 mm, 3.5 µm). The mobile phase consisted of 0.1% formic acid (solvent A) and 90% ACN with 0.1% formic acid (solvent B). […]

Data set [2] is described as follows: Caco-2 cell permeability assay. The data set is classed as in vitro ADME. The following applies: human. The procedure: The Caco-2 assay was carried out after seeding the cells onto the membrane to form a confluent monolayer in 21 days. The media is removed from apical (A) and basolateral (B) chambers and the membrane is washed with HBSS buffer. Eurycomanone (10 µM, 200 µL) was added to the A compartment (which represents the intestinal lumen), and buffer (300 µL) was added to the B compartment (representing the blood), and vice versa. The plate was kept in a shaking incubator (37 °C) for 1 h. The amount of eurycomanone that had permeated across the cells was measured by LC-MS/MS, and the apparent permeability (Papp) values and efflux ratio were calculated. The expression of P-glycoprotein (P-gp) by differentiated Caco-2 cells was confirmed by measuring the Papp value and efflux ratio of vinblastine with and without the presence of a competing P-gp substrate, cyclosporine A. Eurycomanone was also measured with the presence of cyclosporine A to investigate whether eurycomanone may be transported via P-gp transporters.

A short description of data set [3]: Liver microsome metabolic stability, human. The data set is classed as in vitro ADME. The following applies: human liver microsomes. The procedure:
The liver microsome stability assay of eurycomanone was estimated using phase I and phase II enzymes in five types of microsomes (mice, rat, dog, monkey, and human). Eurycomanone at 1 mM (20 µL), microsomes at 0.3 mg/mL (20 µL), and 10 mg/mL of alamethicin in 1:1 DMSO and methanol (20 µL) were preincubated at 37 °C for 10 min. The cofactor, 5 mM UDPGA (20 µL), and 1 mM NADPH (20 µL) were added to make the final assay volume of 100 µL. At timepoints 0, 15, 30, 45, 60, and 90 min, […] of the reaction mixture is taken out and added to the stop solution. The supernatants (10,000 rpm, 10 min, 4 °C) were collected and analysed using LC-MS/MS. The standards used for mice and rat liver microsomes were propranolol and dasatinib. The standards used with the dog and monkey liver microsomes were propranolol and midazolam, while the standards used with the human liver microsomes were propranolol and terfinadine.
(Microsomes from liver hold many membrane-bound enzymes, among them those of drug oxidation.)

Data set [4] in a line: Plasma stability, rat. Format: in vitro ADME. As to conditions: 5 µM, 37 °C, up to 4 h. On the procedure: The plasma stability was estimated by preparing 5 µM of eurycomanone in 600 µL plasma in triplicates. The plasma stability of eurycomanone was determined in five types of plasma (mice, rat, dog, monkey, and human). The reaction was kept at 37 °C and ACN (100 µL) was added at timepoints 0, 30 min, and 1, 2, and 4 h to the reaction mixture (100 µL). The supernatant (10,000 rpm, 10 min, 4 °C) was collected and analysed by LC-MS/MS. The standards (propantheline bromide and enalapril) were analysed in triplicates.

A short description of data set [5]: Rat liver hepatocyte stability. Format: in vitro ADME. The following applies: rat liver hepatocytes.
Where [6] appears, read: read-out: Intrinsic clearance (Clint).

As usually defined, the bioavailability is the share of a dose that reaches the circulation, judged against a reference dose that is usually intravenous. As a reminder, the Tmax is the time from dosing to the highest level. A word on the Cmax: it is the highest concentration seen after dosing. For orientation: Papp means a coefficient for how fast a substance crosses the barrier. Consider `C=C1[C@@H](O)[C@]2(O)OC[C@]34[C@H]2[C@@]2(C)[C@H](O)C(=O)C=C(C)[C@@H]2C[C@H]3OC(=O)[C@H](O)[C@@]14O` [Eurycomanone], for which, in data set [1] (10 mg/kg oral, 10 mg/kg), the “Observed Cmax” value is 334.7 ng/mL. In addition, the AUC(0-t) is 221 ng·h/mL in data set [1] (CD-1, mouse, 1 mg/kg intravenous) and 1210 ng·h/mL in data set [1] (CD-1, mouse, 10 mg/kg oral). Besides, the half-life in data set [1] (CD-1, mouse, 1 mg/kg intravenous, read-out: Half-life (t1/2) (converted)) is 0.3 h; in data set [5], more than 1.5 h. In addition, the clearance in data set [1] (CD-1, mouse, 1 mg/kg intravenous, read-out: Plasma Clearance (CL) (converted)) is 64.2 mL/min/kg. In addition, the Vd in data set [1] (CD-1, mouse, 1 mg/kg intravenous, read-out: Volume of Distribution at Steady State (Vss)) was determined as 1.51 L/kg. Also, the bioavailability in data set [1] (CD-1, mouse, 10 mg/kg oral vs 1 mg/kg intravenous, read-out: Bioavailability (F)) turned out to be 54.9%. For the same compound, the Tmax in data set [1] (CD-1, mouse, 10 mg/kg oral, read-out: Observed Tmax) turned out to be 2 h. For the same compound, in data set [1] (CD-1, mouse, po, 10 mg/kg, 10 mg/kg oral, read-out: Observed Cmax), the Cmax was 335 ng/mL. Also, the Papp at 1 h, 10 µM in data set [2] (Caco-2, Caco-2, A to B) was 0.45 ×10⁻⁶ cm/s; in data set [2] (Caco-2, Caco-2, B to A), 0.73 ×10⁻⁶ cm/s. In addition, the efflux ratio at 1 h, 10 µM in data set [2] (Caco-2, Caco-2, read-out: Efflux Ratio) is less than 2. For the same compound, the “Half-life (t1/2)” value in data set [3] and in data set [5] was more than 1.5 h each time. For the same compound, the half-life at 200 µM in data set [3] is more than 1.5 h. In addition, the CLint scaled at 200 µM in data set [3] (setting [6]) was 52.4 mL/min/kg. Moreover, the plasma stability entry in data set [4] is given as “highly stable”. For the same compound, the hepatocyte CLint in data set [5] (setting [6]) came to 0.67 µL/min/1e6 cells.
